Results on three molecules are retold here after ChEMBL document CHEMBL1152485, “Comparative chemometric modeling of cytochrome 3A4 inhibitory activity of structurally diverse compounds using stepwise MLR, FA-MLR, PLS, GFA, G/PLS and ANN techniques” (Eur J Med Chem, 2009).

As a reminder, the IC50 is the concentration that inhibits the measured activity by half.

Chain of Cytochrome P450 3A4 (P08684 whole entry): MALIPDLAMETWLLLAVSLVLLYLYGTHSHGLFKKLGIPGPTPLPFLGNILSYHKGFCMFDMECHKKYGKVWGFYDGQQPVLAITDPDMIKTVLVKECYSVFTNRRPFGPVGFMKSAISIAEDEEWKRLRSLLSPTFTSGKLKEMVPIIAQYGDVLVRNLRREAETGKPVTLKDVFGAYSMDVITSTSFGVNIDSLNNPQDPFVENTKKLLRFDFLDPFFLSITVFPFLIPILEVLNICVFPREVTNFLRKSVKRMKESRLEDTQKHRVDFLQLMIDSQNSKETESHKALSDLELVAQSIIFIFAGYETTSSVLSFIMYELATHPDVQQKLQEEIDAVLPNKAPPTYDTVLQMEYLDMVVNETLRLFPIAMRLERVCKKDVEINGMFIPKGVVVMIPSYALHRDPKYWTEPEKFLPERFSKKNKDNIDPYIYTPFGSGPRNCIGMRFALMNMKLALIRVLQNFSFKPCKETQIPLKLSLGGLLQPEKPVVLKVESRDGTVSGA

The experiment addresses Cytochrome P450 3A4 (Homo sapiens, UniProt P08684).
`CC(C)(C(=O)c1cccnc1)c1cccnc1` [METYRAPONE]: the IC50 is 4.93 µM.

Molecule `CCCC1COC(Cn2cncn2)(c2ccc(Cl)cc2Cl)O1` (stereo not drawn) [PROPICONAZOLE] had an IC50 of 1.04 µM.

Consider `CC(C)(C)C(=O)C(Oc1ccc(Cl)cc1)n1cncn1` (stereo not drawn) [TRIADIMEFON], for which inhibition was half-maximal at 9.29 µM (IC50).
